Structures can show the parent of a compound that is named as a salt.
Assays:
Type in all cases: biochemical
recombinant human VAP-1 = molecular target: T1, recombinant human VAP-1 (Homo sapiens, UniProt Q16853); test: Activity on recombinant human VAP-1, HRP-coupled Amplex Red hydrogen peroxide assay; settings: substrate 1 mM benzylamine; compound incubated with enzyme at 37° C. for 30 minutes; pH 7.4; read-out: Inhibitory Activity (IC50, nM) human VAP-1
T1 construct: purchased R&D systems
T1 sequence (Q16853 1-763): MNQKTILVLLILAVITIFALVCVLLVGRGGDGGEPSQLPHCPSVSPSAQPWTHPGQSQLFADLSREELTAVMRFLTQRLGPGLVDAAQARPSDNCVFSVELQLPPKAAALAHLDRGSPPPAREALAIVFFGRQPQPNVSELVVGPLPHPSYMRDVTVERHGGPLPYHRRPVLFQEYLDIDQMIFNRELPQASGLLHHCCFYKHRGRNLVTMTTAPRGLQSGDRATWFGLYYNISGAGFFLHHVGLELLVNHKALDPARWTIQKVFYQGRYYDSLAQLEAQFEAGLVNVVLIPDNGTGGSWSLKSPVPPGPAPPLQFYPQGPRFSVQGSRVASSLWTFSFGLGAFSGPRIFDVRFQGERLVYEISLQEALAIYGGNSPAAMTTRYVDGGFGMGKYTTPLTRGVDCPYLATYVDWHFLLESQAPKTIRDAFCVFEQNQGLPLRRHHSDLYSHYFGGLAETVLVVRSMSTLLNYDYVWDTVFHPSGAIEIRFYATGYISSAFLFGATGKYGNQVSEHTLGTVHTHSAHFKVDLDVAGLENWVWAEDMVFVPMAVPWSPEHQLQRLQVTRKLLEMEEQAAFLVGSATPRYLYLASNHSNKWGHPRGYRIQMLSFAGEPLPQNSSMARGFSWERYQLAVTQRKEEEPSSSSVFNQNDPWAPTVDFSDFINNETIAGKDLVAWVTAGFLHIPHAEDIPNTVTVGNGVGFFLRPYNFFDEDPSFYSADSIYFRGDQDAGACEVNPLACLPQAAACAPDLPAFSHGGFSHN
Method in brief: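 H2O2 generation from 1 mM benzylamine was coupled via 1 U/mL HRP to 200 uM Amplex Red; inhibitors, serially diluted 1:3 over 8 points with under 1% final DMSO, had been preincubated 30 min at 37 °C. IC50 from percentage drop in rate.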

[1] = molecular target: T2, recombinant human MAO-A (monoamine oxidase-A) (Homo sapiens, UniProt P21397); test: Activity on recombinant human MAO-A, method similar to the VAP-1 assay; settings: substrate 0.5 mM tyramine; read-out: Inhibitory Activity (IC50, nM) MAO-A
T2 construct: purchased Sigma-Aldrich
T2 sequence (P21397 1-527): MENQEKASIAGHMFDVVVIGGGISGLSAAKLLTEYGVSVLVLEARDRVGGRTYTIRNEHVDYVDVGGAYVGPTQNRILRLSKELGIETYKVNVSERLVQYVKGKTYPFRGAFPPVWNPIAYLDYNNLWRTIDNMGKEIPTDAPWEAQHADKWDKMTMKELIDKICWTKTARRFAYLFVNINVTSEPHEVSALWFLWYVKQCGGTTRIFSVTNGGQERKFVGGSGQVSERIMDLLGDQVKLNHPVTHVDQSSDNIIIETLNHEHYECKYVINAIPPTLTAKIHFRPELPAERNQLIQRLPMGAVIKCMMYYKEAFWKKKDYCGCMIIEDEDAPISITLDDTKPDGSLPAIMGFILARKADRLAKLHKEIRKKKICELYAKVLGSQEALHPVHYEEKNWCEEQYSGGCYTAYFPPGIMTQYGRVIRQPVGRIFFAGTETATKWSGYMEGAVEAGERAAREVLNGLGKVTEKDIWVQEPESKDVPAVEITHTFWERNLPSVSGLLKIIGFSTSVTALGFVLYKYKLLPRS
Method in brief: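 First, serially diluted compounds were incubated with recombinant enzyme in 50 mM sodium phosphate, pH 7.4, for 30 min at 37° C. Next, Amplex Red (200 uM), HRP (1 U/mL) and tyramine (0.5 mM, MAO-A) or benzylamine (1 mM, MAO-B) were added. Then fluorescence was monitored over 1-2 h and IC50 fitted.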

[2] = molecular target: T3, recombinant human MAO-B (monoamine oxidase-B) (Homo sapiens, UniProt P27338); test: Activity on recombinant human MAO-B, method similar to the VAP-1 assay; settings: substrate 1 mM benzylamine; read-out: Inhibitory Activity (IC50, nM) MAO-B
T3 construct: purchased Sigma-Aldrich
T3 sequence (P27338 1-520): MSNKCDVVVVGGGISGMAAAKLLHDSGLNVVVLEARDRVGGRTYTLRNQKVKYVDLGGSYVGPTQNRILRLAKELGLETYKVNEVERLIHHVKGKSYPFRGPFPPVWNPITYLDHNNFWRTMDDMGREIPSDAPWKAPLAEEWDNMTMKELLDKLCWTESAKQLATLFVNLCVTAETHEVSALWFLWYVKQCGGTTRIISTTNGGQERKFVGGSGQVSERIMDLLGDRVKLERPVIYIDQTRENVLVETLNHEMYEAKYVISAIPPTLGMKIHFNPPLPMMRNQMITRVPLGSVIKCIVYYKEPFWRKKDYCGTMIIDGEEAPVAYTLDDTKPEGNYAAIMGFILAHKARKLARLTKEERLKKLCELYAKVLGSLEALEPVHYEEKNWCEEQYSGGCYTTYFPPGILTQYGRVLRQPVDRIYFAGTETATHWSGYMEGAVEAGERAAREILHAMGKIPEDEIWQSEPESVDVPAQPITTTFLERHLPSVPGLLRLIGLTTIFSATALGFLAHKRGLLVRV
Procedure: The compounds according to the present technology were evaluated in terms of activity on recombinant human VAP-1 (R&D systems) by measuring the level of hydrogen peroxide in horseradish peroxidase (HRP)-coupled reaction using Amplex Red Hydrogen Peroxide Assay Kit (Molecular Probes, Invitrogen, USA). The experiment was carried out at room temperature using benzylamine as a substrate. In the HRP-coupled reaction, hydrogen peroxide oxidation of 10-acetyl-3,7-dihydroxyphenoxazine (Amplex Red reagent) produces resorufin, which is a highly fluorescent compound. Briefly, the test compound was dissolved in dimethyl sulfoxide (DMSO) at a concentration of 20 mM. The dose-response assessment was made by 1:3 serial dilution in DMSO, thereby creating an 8 point curve. The concentration of the upper part was controlled according to the efficacy of the compounds, followed by dilution with a reaction buffer solution to obtain a final DMSO concentration less than 1%. To each well of a 96 black well plate, human VAP-1 purified in 50 mM sodium phosphate buffer solution (pH7.4) was added. The test compounds dissolved in DMSO were incubated with the human VAP-1 enzymes at 37° C. for 30 minutes. After 30-minute incubation, each well is added with a reaction mixture containing 200 uM Amplex Red reagent prepared from 50 mM sodium phosphate buffer solution (pH 7.4), 1 mM benzylamine, and 1 U/mL HRP. Fluorescence intensity was measured at several time points during 1-2 hours using a microplate reader (Flexstation3, Molecular Devices) under the wavelength condition exciting at 544 nm and reading the emission at 590 nm. The inhibitory effect of the compounds was measured as a decrease (%) in the signal rate as compared to the control group without any inhibitor (only diluted DMSO). Data was fixed to a logistic model with four variables and IC50 value was calculated using GraphPad Prism program.
In addition, the compounds according to the present technology were evaluated in terms of activity on a recombinant human MAO-A (monoamine oxidase-A, Sigma-Aldrich) and a recombinant human MAO-B (monoamine oxidase-B, Sigma-Aldrich) by using as substrates, 0.5 mM tyramine and 1 mM benzylamine, respectively, with a method similar to the activity evaluation method for recombinant human VAP-1. The compounds according to the present technology were also evaluated in terms of activity on a recombinant human DAO (diamine oxidase, R&D systems) by using as a substrate 1 mM putrescine with a method similar to the activity evaluation method for recombinant human VAP-1.

[3] = molecular target: T4, recombinant human DAO (diamine oxidase) (Homo sapiens, UniProt P19801); test: Activity on recombinant human DAO, method similar to the VAP-1 assay; settings: substrate 1 mM putrescine; read-out: Inhibitory Activity (IC50, nM) DAO
T4 construct: purchased R&D systems
T4 sequence (P19801 20-751): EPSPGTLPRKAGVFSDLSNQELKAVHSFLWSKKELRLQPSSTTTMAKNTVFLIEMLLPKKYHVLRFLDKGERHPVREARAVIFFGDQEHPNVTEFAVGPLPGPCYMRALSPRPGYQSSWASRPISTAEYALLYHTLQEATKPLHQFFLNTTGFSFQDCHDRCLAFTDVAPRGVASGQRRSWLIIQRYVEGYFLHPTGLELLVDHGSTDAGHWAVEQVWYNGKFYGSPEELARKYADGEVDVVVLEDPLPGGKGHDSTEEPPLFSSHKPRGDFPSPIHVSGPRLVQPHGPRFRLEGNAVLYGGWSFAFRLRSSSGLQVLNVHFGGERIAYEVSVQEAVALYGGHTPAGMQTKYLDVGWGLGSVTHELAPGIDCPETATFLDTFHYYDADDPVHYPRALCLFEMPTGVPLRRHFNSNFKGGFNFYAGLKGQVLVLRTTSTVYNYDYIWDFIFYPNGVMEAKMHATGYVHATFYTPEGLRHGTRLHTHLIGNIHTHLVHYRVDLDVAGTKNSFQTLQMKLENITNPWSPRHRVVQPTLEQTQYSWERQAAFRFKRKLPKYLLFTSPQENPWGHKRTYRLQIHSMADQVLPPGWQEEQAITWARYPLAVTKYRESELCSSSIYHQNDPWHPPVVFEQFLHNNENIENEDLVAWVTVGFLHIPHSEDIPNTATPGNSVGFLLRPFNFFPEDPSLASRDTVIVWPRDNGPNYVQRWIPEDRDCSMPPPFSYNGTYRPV
Method in brief: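 Inhibition of recombinant human diamine oxidase (DAO, R&D systems) was assessed by the same approach as the VAP-1 assay, using 1 mM putrescine as substrate. Hydrogen peroxide formed was detected through an HRP-coupled Amplex Red reaction yielding fluorescent resorufin, read at 544 nm excitation and 590 nm emission. IC50 values came from four-parameter logistic fitting in GraphPad Prism.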

Compound	IC50 (recombinant human VAP-1) [nM]	IC50 [1] [nM]	IC50 [2] [nM]	IC50 [3] [nM]
Cn1cc(-c2ccc(Cn3cnn(C/C(=C/F)CN)c3=O)s2)cn1 [Example 142, 2-[(2E)-2-(aminomethyl)-3-fluoroprop-2-en-1-yl]-4-{[5-(1-methyl-1H-pyrazol-4-yl)thiophen-2-yl]methyl}-2,4-dihydro-3H-1,2,4-triazol-3-one]	2.9	> 100000	1000	11000
NC/C(=C\F)Cn1ncn(Cc2ccc(C#Cc3cnc4c(c3)NCCO4)s2)c1=O [Example 135, 2-[(E)-2-(aminomethyl)-3-fluoro-allyl]-4-[[5-[2-(2,3-dihydro-1H-pyrido[2,3-b][1,4]oxazin-7-yl)ethynyl]-2-thienyl]methyl]-1,2,4-triazol-3-one]	1.1	> 100000	750	1100
NC/C(=C\F)Cn1ncn(Cc2ccc(-c3ccc(C4CCOCC4)cc3)s2)c1=O [Example 25, 2-[(2E)-2-(aminomethyl)-3-fluoroprop-2-en-1-yl]-4-(5-[4-(tetrahydro-2H-pyran-4-yl)phenyl]thiophen-2-ylmethyl)-2,4-dihydro-3H-1,2,4-triazol-3-one hydrochloride]	3.1	> 100000	1300	690
NC/C(=C\F)Cn1ncn(Cc2ccc(-c3cc(F)c4[nH]c(=O)ccc4c3)s2)c1=O [Example 82, 6-[5-(1-[(2E)-2-(aminomethyl)-3-fluoroprop-2-en-1-yl]-5-oxo-1,5-dihydro-4H-1,2,4-triazol-4-ylmethyl)thiophen-2-yl]-8-fluoroquinolin-2(1H)-one hydrochloride]	0.1	> 100000	6300	300
NC/C(=C\F)Cn1ncn(Cc2ccc(-c3cnc4[nH]ccc4c3)s2)c1=O [Example 65, 2-[(2E)-2-(aminomethyl)-3-fluoroprop-2-en-1-yl]-4-[5-(1H-pyrrolo[2,3-b]pyridin-5-yl)thiophen-2-yl]methyl-2,4-dihydro-3H-1,2,4-triazol-3-one hydrochloride]	0.7	> 100000	3400	1500

More lines, now with the values ahead:

IC50 (recombinant human VAP-1) [nM]	IC50 [1] [nM]	IC50 [2] [nM]	IC50 [3] [nM]	Compound
0.4	> 100000	470	950	CC(=O)c1ccc(-c2ccc(Cn3cnn(C/C(=C/F)CN)c3=O)s2)s1 [Example 155, 4-[(5′-acetyl-2,2′-bithiophen-5-yl)methyl]-2-[(2E)-2-(aminomethyl)-3-fluoroprop-2-en-1-yl]-2,4-dihydro-3H-1,2,4-triazol-3-one]
1.6	> 100000	2300	710	NC/C(=C\F)Cn1ncn(Cc2ccc(-c3ccc(=O)n(C4CC4)c3)s2)c1=O [Example 195, 5-[5-({1-[(2E)-2-(aminomethyl)-3-fluoroprop-2-en-1-yl]-5-oxo-1,5-dihydro-4H-1,2,4-triazol-4-yl}methyl)thiophen-2-yl]-1-cyclopropylpyridin-2(1H)-one]
0.7	> 100000	25000	520	CN(C)c1ccc(-c2ccc(CCn3cnn(C/C(=C/F)CN)c3=O)s2)cn1 [Example 220, 2-[(2E)-2-(aminomethyl)-3-fluoroprop-2-en-1-yl]-4-(2-{5-[6-(dimethylamino)pyridin-3-yl]thiophen-2-yl}ethyl)-2,4-dihydro-3H-1,2,4-triazol-3-one]
